Test results: ChEMBL document CHEMBL1201862, “PubChem BioAssay data set” (2004)
Values joined by “and” are separate entries in the source; they are usually repeats but may differ in a detail not shown here. Equal entries are not always repeated.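 Exposure lasted 48 hours, with cells grown in 96-well plates and compounds tested at five concentrations. GI50: concentration for 50% inhibition of growth.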 Active and inactive are the calls of the source. Rule as the data show it: active = GI50 up to about 1.1 µM and inactive = higher.

Columns and labels:
Test in all cases: NCI tumour cell line growth inhibition, 48 h
SK-MEL-28 = tested on: SK-MEL-28
MOLT-4 = tested on: MOLT-4
SK-OV-3 = tested on: SK-OV-3
SF-268 = tested on: SF-268
SNB-75 = tested on: SNB-75
BT-549 = tested on: BT-549
CAKI-1 = tested on: CAKI-1
HOP-92 = tested on: HOP-92
NCI/ADR-RES = tested on: NCI/ADR-RES
SK-MEL-5 = tested on: SK-MEL-5
CCRF-CEM = tested on: CCRF-CEM
A549 = tested on: A549
SF-539 = tested on: SF-539
RPMI-8226 = tested on: RPMI-8226
Hs-578T = tested on: Hs-578T
HCC 2998 = tested on: HCC 2998
SN12C = tested on: SN12C
MDA-MB-231 = tested on: MDA-MB-231
HOP-62 = tested on: HOP-62
UACC-257 = tested on: UACC-257
MDA-N = tested on: MDA-N
K562 = tested on: K562
PC-3 = tested on: PC-3
OVCAR-8 = tested on: OVCAR-8
NCI-H226 = tested on: NCI-H226
DU-145 = tested on: DU-145
OVCAR-4 = tested on: OVCAR-4
KM12 = tested on: KM12
LOX IMVI = tested on: LOX IMVI
HCT-15 = tested on: HCT-15
SNB-19 = tested on: SNB-19
IGROV-1 = tested on: IGROV-1
SW-620 = tested on: SW-620
COLO 205 = tested on: COLO 205
TK-10 = tested on: TK-10
NCI-H522 = tested on: NCI-H522
ACHN = tested on: ACHN
SK-MEL-2 = tested on: SK-MEL-2
UACC-62 = tested on: UACC-62
MDA-MB-435 = tested on: MDA-MB-435
A498 = tested on: A498
EKVX = tested on: EKVX
OVCAR-5 = tested on: OVCAR-5
M14 = tested on: M14
MCF7 = tested on: MCF7
Malme-3M = tested on: Malme-3M
HT-29 = tested on: HT-29
U-251 = tested on: U-251
RXF 393 = tested on: RXF 393
786-0 = tested on: 786-0
SF-295 = tested on: SF-295
HCT-116 = tested on: HCT-116
NCI-H460 = tested on: NCI-H460

## CCOC(=O)[C@]1(OC(C)=O)C[C@H](OC(C)=O)[C@@H](C(F)COP(=O)(OCc2ccccc2)OCc2ccccc2)O1 (stereo partly drawn)
SK-MEL-28
  GI50: > 100 µM (inactive)
MOLT-4
  GI50: > 100 µM (inactive)
SK-OV-3
  GI50: > 100 µM (inactive)
SF-268
  GI50: > 100 µM (inactive)
SNB-75
  GI50: > 100 µM (inactive)
BT-549
  GI50: > 100 µM (inactive)
CAKI-1
  GI50: > 100 µM (inactive)
HOP-92
  GI50: 18.5 µM (inactive)
NCI/ADR-RES
  GI50: > 100 µM (inactive)
SK-MEL-5
  GI50: > 100 µM (inactive)
CCRF-CEM
  GI50: 72.9 µM (inactive) and 49 µM (inactive)
A549
  GI50: > 100 µM (inactive)
SF-539
  GI50: > 100 µM (inactive)
RPMI-8226
  GI50: 19.8 µM (inactive) and 25.9 µM (inactive)
Hs-578T
  GI50: > 100 µM (inactive)
HCC 2998
  GI50: 76.2 µM (inactive)
SN12C
  GI50: > 100 µM (inactive)
MDA-MB-231
  GI50: 57.3 µM (inactive)
HOP-62
  GI50: > 100 µM (inactive)
UACC-257
  GI50: 76.2 µM (inactive)
MDA-N
  GI50: > 100 µM (inactive)
K562
  GI50: 71.4 µM (inactive)
PC-3
  GI50: 32.4 µM (inactive) and 58.6 µM (inactive)
OVCAR-8
  GI50: > 100 µM (inactive)
NCI-H226
  GI50: > 100 µM (inactive)
DU-145
  GI50: > 100 µM (inactive)

## COc1ccc(-c2c(C#N)c(-c3ccc(C)cc3)n(NS(=O)(=O)c3ccc(C)cc3)c(=O)c2C#N)cc1
OVCAR-4
  GI50: 31.3 µM (inactive)
SK-MEL-28
  GI50: 61.1 µM (inactive)
MOLT-4
  GI50: 19.8 µM (inactive)
SK-OV-3
  GI50: 70.5 µM (inactive)
SF-268
  GI50: 56.6 µM (inactive)
SNB-75
  GI50: 31.2 µM (inactive)
KM12
  GI50: 24.8 µM (inactive)
BT-549
  GI50: 33.9 µM (inactive)
LOX IMVI
  GI50: 39.3 µM (inactive)
HCT-15
  GI50: 60.3 µM
SNB-19
  GI50: 47.4 µM (inactive)
CAKI-1
  GI50: 63.7 µM (inactive)
HOP-92
  GI50: 74.6 µM (inactive)
NCI/ADR-RES
  GI50: 53.7 µM (inactive)
SK-MEL-5
  GI50: 23.5 µM (inactive)
IGROV-1
  GI50: 39.5 µM (inactive)
SW-620
  GI50: 49.5 µM (inactive)
COLO 205
  GI50: 90.2 µM (inactive)
TK-10
  GI50: 87.3 µM (inactive)
CCRF-CEM
  GI50: 23.7 µM (inactive)
A549
  GI50: 41 µM (inactive)
NCI-H522
  GI50: 80.7 µM (inactive)
ACHN
  GI50: 50.6 µM (inactive)
SF-539
  GI50: 32.4 µM (inactive)
RPMI-8226
  GI50: 17.3 µM (inactive)
SK-MEL-2
  GI50: 58.9 µM (inactive)
Hs-578T
  GI50: 25.1 µM (inactive)
UACC-62
  GI50: 43.6 µM (inactive)
HCC 2998
  GI50: 62.1 µM (inactive)
MDA-MB-435
  GI50: 65.9 µM (inactive)
SN12C
  GI50: 66.2 µM (inactive)
MDA-MB-231
  GI50: > 100 µM (inactive)
A498
  GI50: 92 µM (inactive)
EKVX
  GI50: 53.5 µM (inactive)
OVCAR-5
  GI50: > 100 µM (inactive)
HOP-62
  GI50: 39.7 µM (inactive)
UACC-257
  GI50: > 100 µM (inactive)
M14
  GI50: 55.2 µM (inactive)
MDA-N
  GI50: 75 µM (inactive)
MCF7
  GI50: 24.5 µM (inactive)
Malme-3M
  GI50: > 100 µM (inactive)
HT-29
  GI50: 44.1 µM (inactive)
U-251
  GI50: 53.6 µM (inactive)
RXF 393
  GI50: 38.8 µM (inactive)
K562
  GI50: 57 µM (inactive)
PC-3
  GI50: 36.6 µM (inactive)
OVCAR-8
  GI50: 72.3 µM (inactive)
NCI-H226
  GI50: > 100 µM (inactive)
786-0
  GI50: 86.5 µM (inactive)
SF-295
  GI50: 37.8 µM (inactive)
HCT-116
  GI50: 38.5 µM (inactive)
NCI-H460
  GI50: 54.3 µM (inactive)
